Columns and labels:
murine donor heart [1] = experiment: murine donor heart, 16 h of cold storage followed by ex vivo perfusion; conditions: 50 μM, 60 minutes of reperfusion, N=8
From the text: FIG. 2. […] N=8 at each time point.

pig donor heart = experiment: pig donor heart, 10 h of cold storage followed by ex vivo perfusion; conditions: 50 μM in HTK; 10 h of cold storage on ice, 30 minutes of reperfusion ex vivo; N=4
Procedure: FIG. 5. […] Pig hearts were perfused with 1 L HTK solution after cross clamp. Addition 2 L of HTK with or without canrenone were perfused and stored for 10 hr on ice. Pig hearts were perfused in ex vivo system with blood and Krebs buffer (1:4, hemoglobin concentration: […]). max dp/dt (contraction) and min dp/dt (relaxation) were calculated by average the max/min dp/dt for 10 minute period after 30 minutes of reperfusion using Millar Catheter. *P<0.05, **P<0.01. N=4.

murine donor heart [2] = experiment: murine donor heart, 16 h of cold storage followed by 24 h of heterotopic transplantation; type: in vivo; conditions: 50 μM in storage, n=8
Procedure: FIG. 4. […] Donor heart was isolated and store with or without canrenone for 16 hr, then the donor hearts were heterotopic transplanted to receipt cervical region. max dp/dt (contraction) and min dp/dt (relaxation) were calculated by average the max/min dp/dt for 1 minute period after 24 hr of transplantation using Millar Catheter. *P<0.05, n=8.

heart failure = conditions: cited from earlier work
cardiomyocytes = conditions: IR conditions; cited from earlier work
[3] = tested on: heart, kidneys, lung and liver; conditions: cited from earlier work
[4] = tested on: mineralocorticoid receptor (MR); conditions: cited from earlier work
[5] = large epidemiologic studies; cited from earlier work
donor heart = donor heart function after 16 hr of cold storage followed by reperfusion (VPA)
From the text: (§1) FIG. 7, panels A-C. […] Panels B and C.

heart = conditions: rats; cited from earlier work
Irg1 = Irg1 expression in cold-stored donor heart; conditions: cold storage of donor heart, VPA treatment
From the text: as §1

[6] = tested on: ischemia reperfusion (IR) rats; conditions: cited from earlier work; for heart function: ischemia reperfusion (IR) rats

C[C@]12CCC(=O)C=C1C=C[C@@H]1[C@@H]2CC[C@@]2(C)[C@H]1CC[C@@]21CCC(=O)O1 [Canrenone, canrenone]
donor heart function, max dp/dt (contraction) and min dp/dt (relaxation) (murine donor heart [1]): improves murine donor heart function | donor heart function, max dp/dt (contraction) and min dp/dt (relaxation) (pig donor heart): improve pig donor heart function | donor heart function, max dp/dt (contraction) and min dp/dt (relaxation) (murine donor heart [2]): improve murine donor heart function

Cc1sc2c(c1C)C(c1ccc(Cl)cc1)=N[C@@H](CC(=O)OC(C)(C)C)c1nnc(C)n1-2 [JQ-1]
heart failure (heart failure): effectively halt heart failure | protection of cardiomyocytes (cardiomyocytes): may protect cardiomyocytes

CCCC(CCC)C(=O)O [VPA, valproic acid]
fibrosis [3]: reduce fibrosis | acetylation of the mineralocorticoid receptor (MR) [4]: affect the acetylation of the mineralocorticoid receptor | incidence of stroke and AMI [5]: reduce the incidence of stroke and AMI | effect of VPA on donor heart function with Irg1 deletion (donor heart; Irg1 deletion, 16 hr of cold storage followed by reperfusion): Irg1 deletion reduce the protective effect | donor heart ischemic tolerance (donor heart; cold storage of donor heart): improve donor heart ischemic tolerance | protection of the heart against AMI injury (heart): protects the heart against AMI injury | Irg1 expression (Irg1): further stimulates Irg1 upregulation

CC(=O)O [acetate]
heart function [6]: improve heart function

CCCCCCCC(=O)O [octanoate]
heart functional recovery ([6]; 160 mg/kg i.p. injected once at the time of reperfusion): significant heart functional recovery | heart function [6]: improve heart function

From US20230241076A1, “HISTONE-ACETYLATION-MODULATING AGENTS FOR THE TREATMENT AND PREVENTION OF ORGAN INJURY” (The Regents of the University of Michigan, priority 2020, published 2023)
